Patent US20030152597A1, “Use of at least one sapogenin for prevening the skin or ageing symptoms” (priority 2000, published 2003)

Tested on: collagenase produced by Clostridium Histolyticum
Assay: Inhibition of collagenase activity (DQ-gelatin fluorescence)
Type: biochemical
Details: decrease in collagenase activity relative to the control
Description: The effect of an extract of wild yam on the inhibition of the activity of collagenase produced by Clostridium Histolyticum was evaluated. Although different from a human enzyme, this collagenase is used on account of its ability to digest human collagen. […]
The control consisted of collagenase without test product. Thus, the activity of the control constitutes 100% collagenase activity and thus 0% inhibition of the said activity.
The products were preincubated with the enzyme for 10 minutes at room temperature, and DQ-gelatin was then added and the fluorescence obtained on degradation of the substrate was recorded for 10 minutes (excitation 480 nm; emission 538 nm) on a SpectraMax spectrofluorimetre (Molecular Devices); the results were processed using Soft Max Pro software.
The percentages indicated represent the decrease in collagenase activity relative to the control.

In the case of c1cnc2c(c1)ccc1cccnc12 [Phenanthroline, phenanthroline], the “% inhibition (n = 4)” value (0.1 mM in ethanol) is reported as 96%, the “% inhibition (n = 4)” value (0.25 mM in ethanol) is reported as 40% and the “% inhibition (n = 4)” value (0.5 mM in ethanol) is reported as 65%.
